Measurements taken from ChEMBL document CHEMBL1201862, “PubChem BioAssay data set” (2004).
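Values below derive from 48-hour exposures of cells grown in 96-well plates, with endpoints linearly interpolated between the two concentrations bracketing the appropriate inhibition level. GI50 is the concentration that inhibits growth by half.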 Calls of active or inactive are those of the source. No stated cut-off is given here; in the data, active = GI50 up to about 1.1 µM and inactive = higher.

How the values were obtained:
Experiment in all cases: DTP human tumour cell line panel, 48 h
[1] = system: A549
[2] = system: SR
[3] = system: HCC 2998
[4] = system: KM12
[5] = system: OVCAR-5
[6] = system: SW-620
[7] = system: OVCAR-8
[8] = system: K562
[9] = system: HT-29
[10] = system: PC-3
[11] = system: HOP-62
[12] = system: OVCAR-4
[13] = system: UACC-257
[14] = system: M14
[15] = system: SF-295
[16] = system: EKVX
[17] = system: SK-MEL-5
[18] = system: SK-MEL-2
[19] = system: COLO 205

| SMILES | GI50 [1] | GI50 [2] | GI50 [3] | GI50 [4] | GI50 [5] | GI50 [6] | GI50 [7] | GI50 [8] | GI50 [9] | GI50 [10] | GI50 [11] | GI50 [12] | GI50 [13] | GI50 [14] | GI50 [15] | GI50 [16] | GI50 [17] | GI50 [18] | GI50 [19] |
| --- | --- | --- | --- | --- | --- | --- | --- | --- | --- | --- | --- | --- | --- | --- | --- | --- | --- | --- | --- |
| CC[n+]1[b-](C(C)(C)C)n(/N=C(\C)C(C)(C)C)[b-](C(C)(C)C)[n+]1CC | > 100 µM (inactive) | 23.6 µM (inactive) | > 100 µM (inactive) | > 100 µM (inactive) | > 100 µM (inactive) | > 100 µM (inactive) | > 100 µM (inactive) | 71.8 µM (inactive) | > 100 µM (inactive) | > 100 µM (inactive) | > 100 µM (inactive) | > 100 µM (inactive) | > 100 µM (inactive) | > 100 µM (inactive) | > 100 µM (inactive) | > 100 µM (inactive) | > 100 µM (inactive) | > 100 µM (inactive) | – |
| Cc1ccc(Cn2c(C)nc3c2C(=O)c2ccccc2C3=O)cc1 | 4.63 µM (inactive) | 0.331 µM (active) | 17.6 µM (inactive) | 4.56 µM (inactive) | – | 3.33 µM (inactive) | 3.05 µM (inactive) | 0.834 µM (active) | 1.27 µM (inactive) | – | 14 µM (inactive) | 13.3 µM (inactive) | 11.7 µM (inactive) | 27.7 µM (inactive) | 7.66 µM (inactive) | 18.2 µM (inactive) | 4.52 µM (inactive) | 15.3 µM (inactive) | 15.8 µM (inactive) |
| COc1cc(Nc2nc3ccccc3nc2-c2cccs2)cc(OC)c1OC | 21 µM (inactive) | 26.1 µM (inactive) | 36.4 µM (inactive) | – | > 100 µM (inactive) | 50.4 µM (inactive) | > 10 µM (inactive) | – | 41.7 µM (inactive) | – | 39.4 µM (inactive) | – | 28.8 µM (inactive) | – | 22.8 µM (inactive) | 89.5 µM (inactive) | – | 85.3 µM (inactive) | > 10 µM (inactive) |
| C/C(=N\NC(N)=S)c1ccc(C)c(C)c1 | 65.8 µM (inactive) | 68.9 µM (inactive) | 51.6 µM (inactive) | 44.5 µM (inactive) | 29.1 µM (inactive) | 52.8 µM (inactive) | 66.2 µM (inactive) | 36.6 µM (inactive) | 19.4 µM (inactive) | – | > 100 µM (inactive) | 23.9 µM (inactive) | 44.2 µM (inactive) | 41.7 µM (inactive) | 48.8 µM (inactive) | 3.31 µM (inactive) | 69.2 µM (inactive) | 45 µM (inactive) | 26.9 µM (inactive) |
| CC(C)(C)c1cc([Si](C)(C)C)c(C#N)c([Si](C)(C)C)c1 | 65.5 µM (inactive) | 34.9 µM (inactive) | 90.6 µM (inactive) | 88.9 µM (inactive) | > 100 µM (inactive) | > 100 µM (inactive) | > 100 µM (inactive) | > 100 µM (inactive) | 76.7 µM (inactive) | – | > 100 µM (inactive) | > 100 µM (inactive) | 34.3 µM (inactive) | > 100 µM (inactive) | 29.8 µM (inactive) | > 100 µM (inactive) | – | > 100 µM (inactive) | 51.3 µM (inactive) |
| CC1(C)CC(/C=C2/OC(=O)c3ccccc32)=C(C#N)C(=O)O1 | > 100 µM (inactive) | > 100 µM (inactive) | 0.294 µM (active) | > 100 µM (inactive) | > 100 µM (inactive) | > 100 µM (inactive) | > 100 µM (inactive) | > 100 µM (inactive) | > 100 µM (inactive) | – | > 100 µM (inactive) | 18.6 µM (inactive) | > 100 µM (inactive) | > 100 µM (inactive) | > 100 µM (inactive) | > 100 µM (inactive) | > 100 µM (inactive) | > 100 µM (inactive) | > 100 µM (inactive) |
| Cc1cc(O)nc(NNC(C#N)c2ccco2)n1 (centres undefined) | > 100 µM (inactive) | > 100 µM (inactive) | – | > 100 µM (inactive) | > 100 µM (inactive) | > 100 µM (inactive) | > 100 µM (inactive) | > 100 µM (inactive) | > 100 µM (inactive) | – | > 100 µM (inactive) | > 100 µM (inactive) | > 100 µM (inactive) | > 100 µM (inactive) | > 100 µM (inactive) | – | > 100 µM (inactive) | > 100 µM (inactive) | > 100 µM (inactive) |
| COc1ccccc1-n1c(C)nc2ccccc2c1=O | > 100 µM (inactive) | > 100 µM (inactive) | > 100 µM (inactive) | > 100 µM (inactive) | > 100 µM (inactive) | > 100 µM (inactive) | > 100 µM (inactive) | > 100 µM (inactive) | > 100 µM (inactive) | – | > 100 µM (inactive) | > 100 µM (inactive) | > 100 µM (inactive) | > 100 µM (inactive) | > 100 µM (inactive) | > 100 µM (inactive) | > 100 µM (inactive) | > 100 µM (inactive) | > 100 µM (inactive) |
| Cc1cc(O)nc(NNC(C#N)c2cccc([N+](=O)[O-])c2)n1 (centres undefined) | > 100 µM (inactive) | 74 µM (inactive) | – | > 100 µM (inactive) | > 100 µM (inactive) | > 100 µM (inactive) | > 100 µM (inactive) | > 100 µM (inactive) | > 100 µM (inactive) | – | > 100 µM (inactive) | > 100 µM (inactive) | > 100 µM (inactive) | > 100 µM (inactive) | > 100 µM (inactive) | – | > 100 µM (inactive) | > 100 µM (inactive) | > 100 µM (inactive) |
| CC(C)(c1ccc(Oc2ccc(C#N)c(C#N)c2)cc1)c1ccc(Oc2ccc(C#N)c(C#N)c2)cc1 | > 10 µM (inactive) | > 10 µM (inactive) | > 10 µM (inactive) | > 10 µM (inactive) | > 10 µM (inactive) | > 100 µM (inactive) | > 10 µM (inactive) | > 10 µM (inactive) | > 10 µM (inactive) | – | > 10 µM (inactive) | > 10 µM (inactive) | > 10 µM (inactive) | > 10 µM (inactive) | > 10 µM (inactive) | > 10 µM (inactive) | > 10 µM (inactive) | > 10 µM (inactive) | > 10 µM (inactive) |
| COc1cc(C(C#N)NNC(=O)Cc2ccccc2)cc(OC)c1OC (centres undefined) | > 100 µM (inactive) | > 100 µM (inactive) | – | > 100 µM (inactive) | > 100 µM (inactive) | > 100 µM (inactive) | > 100 µM (inactive) | > 100 µM (inactive) | > 100 µM (inactive) | – | > 100 µM (inactive) | > 100 µM (inactive) | > 100 µM (inactive) | > 100 µM (inactive) | > 100 µM (inactive) | – | > 100 µM (inactive) | > 100 µM (inactive) | > 100 µM (inactive) |
| C=CC/N=C1\N=C(C)C(C(=O)OCC)S1 (centres undefined) | > 100 µM (inactive) | > 100 µM (inactive) | > 100 µM (inactive) | > 100 µM (inactive) | > 100 µM (inactive) | > 100 µM (inactive) | > 100 µM (inactive) | > 100 µM (inactive) | > 100 µM (inactive) | – | > 100 µM (inactive) | > 100 µM (inactive) | > 100 µM (inactive) | > 100 µM (inactive) | > 100 µM (inactive) | > 100 µM (inactive) | > 100 µM (inactive) | > 100 µM (inactive) | > 100 µM (inactive) |
| CC/C(CC(=O)CCC(=O)Nc1ccccc1[N+](=O)[O-])=N/NC(=O)C[n+]1ccccc1 | > 100 µM (inactive) | > 100 µM (inactive) | > 100 µM (inactive) | > 100 µM (inactive) | > 100 µM (inactive) | > 100 µM (inactive) | > 100 µM (inactive) | > 100 µM (inactive) | > 100 µM (inactive) | – | > 100 µM (inactive) | > 100 µM (inactive) | > 100 µM (inactive) | > 100 µM (inactive) | > 100 µM (inactive) | > 100 µM (inactive) | > 100 µM (inactive) | > 100 µM (inactive) | > 100 µM (inactive) |
| CC1CC/C(=C\c2ccc(Cl)cc2)c2nc(N)c(C#N)c(-c3ccc(Cl)cc3)c21 (centres undefined) | 34.8 µM (inactive) | < 0.01 µM (active) | 26.1 µM (inactive) | 40.2 µM (inactive) | > 100 µM (inactive) | 55.3 µM (inactive) | 63.2 µM (inactive) | 31.5 µM (inactive) | 30.7 µM (inactive) | 13.8 µM (inactive) | 70.6 µM (inactive) | > 100 µM (inactive) | 32.9 µM (inactive) | 57.8 µM (inactive) | 44.1 µM (inactive) | 80.7 µM (inactive) | 41.8 µM (inactive) | 66.1 µM (inactive) | 41.4 µM (inactive) |
| COC12C=CC(CC1)c1c(O)ccc(O)c12 (centres undefined) | > 92.5 µM (inactive) | 5.6 µM (inactive) | 99.3 µM (inactive) | > 95.1 µM (inactive) | > 100 µM (inactive) | 27.5 µM (inactive) | 33 µM (inactive) | 22.6 µM (inactive) | 64.9 µM (inactive) | – | > 100 µM (inactive) | 19.6 µM (inactive) | > 84.9 µM (inactive) | 57.7 µM (inactive) | > 90.8 µM (inactive) | > 66.2 µM (inactive) | 45 µM (inactive) | 42.9 µM (inactive) | 22.6 µM (inactive) |
| CCOC1c2cc(C(C)C)c(O)c(O)c2[C@@]23CCCC(C)(C)C2C1OC3=O (some centres undefined) | 82.4 µM (inactive) | 61.4 µM (inactive) | > 100 µM (inactive) | – | > 100 µM (inactive) | > 100 µM (inactive) | > 100 µM (inactive) | > 100 µM (inactive) | > 100 µM (inactive) | – | > 100 µM (inactive) | – | > 100 µM (inactive) | > 100 µM (inactive) | > 100 µM (inactive) | > 100 µM (inactive) | 70.3 µM (inactive) | > 100 µM (inactive) | > 100 µM (inactive) |
